# Reference: patent publication US20230321246A1, “HIGH-STRENGTH ORAL TAXANE COMPOSITIONS AND METHODS” (ATHENEX HK INNOVATIVE LIMITED, priority 2017, published 2023)
# Key:
# [1] = in vivo; settings: male, beagle, dog, iv, 2 mg/kg
# [2] = in vivo; settings: male, beagle, dog, iv, 2 mg/kg; remark: listed apart in the source
smiles,measurement,setting,value
"CC(=O)O[C@H]1C(=O)[C@@]2(C)[C@H]([C@H](OC(=O)c3ccccc3)[C@]3(O)C[C@H](OC(=O)[C@H](O)[C@@H](NC(=O)c4ccccc4)c4ccccc4)C(C)=C1C3(C)C)[C@]1(OC(C)=O)CO[C@@H]1C[C@@H]2O [Paclitaxel, paclitaxel]",AUC(0-inf),[1],768 ng·h/mL
same,AUC(0-t),[1],701 ng·h/mL
same,Cmax,[1],811 ng/mL
same,MRT last,[1],5.26 h
same,Tmax,[1],0 h
same,Vd,[1],2.1 L/kg
same,clearance,[1],44.3 mL/min/kg
same,half-life,[1],7.57 h
same,AUC(0-inf),[2],1950 ng·h/mL
same,AUC(0-t),[2],1840 ng·h/mL
same,Cmax,[2],1690 ng/mL
same,MRT,[2],3.67 h
same,Tmax,[2],1 h
same,Vd,[2],6.59 L/kg
same,clearance,[2],19.3 mL/min/kg
